The source of these data is patent US6949536B2, “Sulfonylbenzene compounds as anti-inflammatory/analgesic agents” (Pfizer, Inc., priority 1998, dated 2005).

The structures appear in SMILES notation. Where a name gives a salt, the structure may show the parent alone.

`Cc1nc(-c2ccc(-c3cscn3)c(C)c2)c(-c2ccc(S(C)(=O)=O)c(F)c2)o1` [Example 173, 5-[3-Fluoro-4-(methylsulfonyl)phenyl]-2-methyl-4-[3-methyl-4-(1,3-thiazol-4-yl)phenyl]-1,3-oxazole] gave a melting point of 177 to 178 °C.

Molecule `CN(C)C(=O)c1cc(-c2ccc(-c3ccco3)cc2)n(-c2ccc(S(C)(=O)=O)c(F)c2)n1` (as salt: hydrochloride) [Example 133, N,N-Dimethyl-1-[3-fluoro-4-(methylsulfonyl)phenyl]-5-[4-(2-furyl)phenyl]-1H-pyrazole-3-carboxamide] gave a melting point of 167 to 168 °C. Next, `NS(=O)(=O)c1ccc(-n2nc(C(F)(F)F)cc2-c2ccc(-c3ccco3)cc2)c(F)c1` (as salt: hydrochloride) [Example 141, 3-Fluoro-4-[5-[4-(2-furyl)phenyl]-3-(trifluoromethyl)-1H-pyrazol-1-yl]benzenesulfonamide]: 174.4 °C; `Cc1scnc1-c1ccc(-c2cc(C(F)(F)F)nn2-c2ccc(S(C)(=O)=O)c(F)c2)cc1` [Example 104, 4-{4-[1-[3-Fluoro-4-(methylsulfonyl)phenyl]-3-(trifluoromethyl)-1H-pyrazol-5-yl]phenyl}-5-methyl-1,3-thiazole]: 170 to 172 °C. Next, `NS(=O)(=O)c1ccc(-n2nc(C(F)(F)F)cc2-c2ccc(-c3ccco3)cc2)cc1F` (as salt: hydrochloride) [Example 137, 2-Fluoro-4-[5-[4-(2-furyl)phenyl]-3-(trifluoromethyl)-1H-pyrazol-1-yl]benzenesulfonamide]: 151 °C. Molecule `CS(=O)(=O)c1ccc(-n2nc(C(F)(F)F)cc2-c2ccc(-c3ccco3)cc2)cc1C(F)(F)F` (as salt: hydrochloride) [Example 135, 5-[4-(2-Furyl)phenyl]-1-[4-(methylsulfonyl)-3-(trifluoromethyl)phenyl]-3-trifluoromethyl-1H-pyrazole] gave a melting point of 159 to 160 °C. To `CS(=O)(=O)c1ccc(-n2nc(C(F)(F)F)cc2-c2ccc(-c3ncco3)cc2)cc1F` [Example 96, 2-{4-[1-[3-Fluoro-4-(methylsulfonyl)phenyl]-3-(trifluoromethyl)-1H-pyrazol-5-yl]phenyl}-1,3-oxazole] belongs 140 to 142 °C; to `CS(=O)(=O)c1ccc(-n2nc(C(F)(F)F)cc2-c2ccc(-c3ccsc3)cc2)cc1F` [Example 87, 1-[3-Fluoro-4-(methylsulfonyl)phenyl]-5-[4-(3-thienyl)phenyl]-3-(trifluoromethyl)-1H-pyrazole], 72 to 74 °C; to `CS(=O)(=O)c1ccc(C2=C(c3ccc(-c4cscn4)cc3)C(=O)OC2)cc1` [Example 182, 4-[4-(Methylsulfonyl)phenyl]-3-[4-(1,3-thiazol-4-yl)phenyl]-2(5H)-furanone], 236.8 °C. To `CS(=O)(=O)c1ccc(-n2nc(C(=O)N3CCOCC3)cc2-c2ccc(-c3ccco3)cc2)cc1F` [Example 130, 1-[3-Fluoro-4-(methylsulfonyl)phenyl]-5-[4-(2-furyl)phenyl]-3-(4-morpholinecarbonyl)-1H-pyrazole] belongs 221 to 222 °C. `NS(=O)(=O)c1ccc(-n2nc(C(F)(F)F)cc2-c2ccc(-c3cscn3)c(F)c2)cc1F` (as salt: hydrochloride) [Example 114, 2-Fluoro-4-[5-[3-fluoro-4-(1,3-thiazol-4-yl)phenyl]-3-(trifluoromethyl)-1H-pyrazol-1-yl]benzenesulfonamide] yielded a melting point of 196 to 198 °C. Next, `Cc1cc(-c2ccc(S(C)(=O)=O)cc2)n(-c2ccc(-c3ccco3)cc2)c1` [Example 58, 1-[4-(2-Furyl)phenyl]-4-methyl-2-[4-(methylsulfonyl)phenyl]-1H-pyrrole]: 133 to 135 °C; `COc1cc(-n2nc(C(F)(F)F)cc2-c2ccc(-c3ccco3)cc2)ccc1S(C)(=O)=O` (as salt: hydrochloride) [Example 136, 5-[4-(2-Furyl)phenyl]-1-[3-methoxy-4-(methylsulfonyl)phenyl]-3-trifluoromethyl-1H-pyrazole]: 138.9 °C; `Cc1cc(-c2cscn2)ccc1-c1cc(C(F)(F)F)nn1-c1ccc(S(C)(=O)=O)cc1` (as salt: methanesulfonate) [Example 186, 1-[4-(Methylsulfonyl)phenyl]-5-[2-methyl-4-(4-thiazolyl)phenyl]-3-trifluoromethyl-1H-pyrazole]: 174.7 °C.

`NS(=O)(=O)c1ccc(-n2nc(C(F)(F)F)cc2-c2ccc(-c3cscn3)c(O)c2)cc1F` (as salt: hydrochloride) [Example 174, 2-Fluoro-4-[5-[3-hydroxy-4-(1,3-thiazol-4-yl)phenyl]-3-(trifluoromethyl)-1H-pyrazol-1-yl]benzenesulfonamide]: the melting point was 224 to 226 °C. To `CS(=O)(=O)c1ccc(-n2nc(C(N)=O)cc2-c2ccc(-c3ccco3)cc2)cc1F` [Example 132, 1-[3-Fluoro-4-(methylsulfonyl)phenyl]-5-[4-(2-furyl)phenyl]-1H-pyrazole-3-carboxamide] belongs 239 to 240 °C; to `Cc1ccc(-c2ccc(S(C)(=O)=O)cc2)n1-c1ccc(-c2ccoc2)cc1` [Example 38, 5-[4-(Methylsulfonyl)phenyl]-1-[4-(3-furyl)phenyl]-2-methyl-1H-pyrrole], 200 to 202 °C. To `CS(=O)(=O)c1ccc(-n2cc(C(F)(F)F)nc2-c2ccc(-c3ccco3)cc2)cc1` [Example 53, 2-[4-(2-Furyl)phenyl]-1-[4-(methylsulfonyl)phenyl]-4-(trifluoromethyl)-1H-imidazole] belongs 82 to 84 °C; to `NS(=O)(=O)c1ccc(C2=C(c3ccc(-c4cscn4)cc3)C(=O)OC2)cc1F` [Example 167, 2-Fluoro-4-[5-oxo-4-[4-(1,3-thiazol-4-yl)phenyl]-2,5-dihydro-3-furanyl]benzenesulfonamide], 194.2 °C; to `CS(=O)(=O)c1ccc(-n2nc(C(F)(F)F)cc2-c2ccc(-c3cocn3)cc2)cc1` (as salt: hydrochloride) [Example 95, 4-{4-[1-[4-(Methylsulfonyl)phenyl]-3-(trifluoromethyl)-1H-pyrazol-5-yl]phenyl}-1,3-oxazole], 175 to 177 °C. With `Cc1cc(-c2cc(C(F)(F)F)nn2-c2ccc(S(C)(=O)=O)c(F)c2)ccc1-c1cscn1` [Example 106, 4-{4-[1-[3-Fluoro-4-(methylsulfonyl)phenyl]-3-(trifluoromethyl)-1H-pyrazol-5-yl]-2-methylphenyl}-1,3-thiazole], the melting point is 112 to 114 °C. To `COc1cc(-n2nc(C(F)(F)F)cc2-c2ccc(-c3ccco3)cc2)ccc1S(N)(=O)=O` (as salt: hydrochloride) [Example 148, 4-[5-[4-(2-Furyl)phenyl]-3-(trifluoromethyl)-1H-pyrazol-1-yl]-2-methoxybenzenesulfonamide] belongs 206.7 °C. As to `Cc1ccc(-c2ccc(S(C)(=O)=O)cc2)n1-c1ccc(-c2cccs2)cc1` [Example 45, 2-Methyl-5-[4-(methylsulfonyl)phenyl]-1-[4-(2-thienyl]phenyl]-1H-pyrrole], the melting point was in the range of 185 to 186 °C.

In general, melting point refers to the temperature of the solid-liquid transition.
